According to patent US20230250066A1, “HERBICIDAL CINNOLINE DERIVATIVES” (SYNGENTA CROP PROTECTION AG, priority 2020, published 2023):

How the values were obtained:
Type in all cases: in vivo
Zea mays (ZEAMX) [1] = assay: Pre-emergence herbicidal test; settings: 1000 g/ha, evaluated after 13 days
[2] = system: Ipomoea hederacea (IPOHE); assay: Pre-emergence herbicidal test; settings: 1000 g/ha, evaluated after 13 days
Setaria faberi (SETFA) [3] = assay: Post-emergence herbicidal test; settings: 1000 g/ha unless otherwise stated, evaluated after 13 days
Method in brief: (§1)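 Pots sown in standard soil were kept in a glasshouse (24° C./16° C. day/night, 14 hours light, 65% humidity) and sprayed at 1000 g/ha unless otherwise stated in acetone/water (50:50) with 0.5% Tween 20. Percentage damage was scored after 13 days on a 0–5 scale.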

[4] = system: Ipomoea hederacea (IPOHE); assay: Post-emergence herbicidal test; settings: 1000 g/ha unless otherwise stated, evaluated after 13 days
Method in brief: as §1

[5] = system: Echinochloa crus-galli (ECHCG); assay: Post-emergence herbicidal test; settings: 1000 g/ha unless otherwise stated, evaluated after 13 days
Method in brief: as §1

[6] = system: Amaranthus retoflexus (AMARE); assay: Post-emergence herbicidal test; settings: 1000 g/ha unless otherwise stated, evaluated after 13 days
Method in brief: as §1

Zea mays (ZEAMX) [7] = assay: Post-emergence herbicidal test; settings: 1000 g/ha unless otherwise stated, evaluated after 13 days
Method in brief: as §1

[8] = system: Abutilon theophrasti (ABUTH); assay: Post-emergence herbicidal test; settings: 1000 g/ha unless otherwise stated, evaluated after 13 days
Method in brief: as §1

Setaria faberi (SETFA) [9] = assay: Pre-emergence herbicidal test; settings: 1000 g/ha, evaluated after 13 days
[10] = system: Abutilon theophrasti (ABUTH); assay: Pre-emergence herbicidal test; settings: 1000 g/ha, evaluated after 13 days
[11] = system: Echinochloa crus-galli (ECHCG); assay: Pre-emergence herbicidal test; settings: 1000 g/ha, evaluated after 13 days
[12] = system: Amaranthus retoflexus (AMARE); assay: Pre-emergence herbicidal test; settings: 1000 g/ha, evaluated after 13 days

SMILES: CCOC(=O)c1nn(-c2ccc(Cl)cc2Cl)c2cccc(S(C)(=O)=O)c2c1=O [Compound P44, ethyl 1-(2,4-dichlorophenyl)-5-methylsulfonyl-4-oxo-cinnoline-3-carboxylate]
- percentage damage caused to the plant, five-point scale, ZEAMX (Zea mays (ZEAMX) [1]): 0 (0=0%)
- percentage damage caused to the plant, five-point scale, IPOHE [2]: 0 (0=0%)
- percentage damage caused to the plant, SETFA (five-point scale) (Setaria faberi (SETFA) [3]): 4 (4=61-80%)
- percentage damage caused to the plant, IPOHE (five-point scale) [4]: 1 (1=10-20%)
- percentage damage caused to the plant, ECHCG (five-point scale) [5]: 4 (4=61-80%)
- percentage damage caused to the plant, AMARE (five-point scale) [6]: 1 (1=10-20%)
- percentage damage caused to the plant, ZEAMX (five-point scale) (Zea mays (ZEAMX) [7]): 1 (1=10-20%)
- percentage damage caused to the plant, ABUTH (five-point scale) [8]: 1 (1=10-20%)
- percentage damage caused to the plant, five-point scale, SETFA (Setaria faberi (SETFA) [9]): 4 (4=61-80%)
- percentage damage caused to the plant, five-point scale, ABUTH [10]: 0 (0=0%)
- percentage damage caused to the plant, five-point scale, ECHCG [11]: 2 (2=21-40%)
- percentage damage caused to the plant, five-point scale, AMARE [12]: 1 (1=10-20%)

SMILES: CCOC(=O)c1nn(-c2ccc(OC(F)(F)F)cc2)c2ccc(CC(C)C)c(S(C)(=O)=O)c2c1=O [Compound P45, ethyl 6-isobutyl-5-methylsulfonyl-4-oxo-1-[4-(trifluoromethoxy)phenyl]cinnoline-3-carboxylate]
- percentage damage caused to the plant, five-point scale, ZEAMX (Zea mays (ZEAMX) [1]): 0 (0=0%)
- percentage damage caused to the plant, five-point scale, IPOHE [2]: 0 (0=0%)
- percentage damage caused to the plant, SETFA (five-point scale) (Setaria faberi (SETFA) [3]): 1 (1=10-20%)
- percentage damage caused to the plant, IPOHE (five-point scale) [4]: 0 (0=0%)
- percentage damage caused to the plant, ECHCG (five-point scale) [5]: 1 (1=10-20%)
- percentage damage caused to the plant, AMARE (five-point scale) [6]: 0 (0=0%)
- percentage damage caused to the plant, ZEAMX (five-point scale) (Zea mays (ZEAMX) [7]): 1 (1=10-20%)
- percentage damage caused to the plant, ABUTH (five-point scale) [8]: 0 (0=0%)
- percentage damage caused to the plant, five-point scale, SETFA (Setaria faberi (SETFA) [9]): 0 (0=0%)
- percentage damage caused to the plant, five-point scale, ABUTH [10]: 0 (0=0%)
- percentage damage caused to the plant, five-point scale, ECHCG [11]: 0 (0=0%)
- percentage damage caused to the plant, five-point scale, AMARE [12]: 0 (0=0%)

SMILES: CCOC(=O)c1nn(-c2ccc(OC(F)(F)F)cc2)c2cc(CC(C)C)cc(S(C)(=O)=O)c2c1=O [Compound P46, ethyl 7-isobutyl-5-methysulfonyl-4-oxo-1-[4-(trifluoromethoxy)phenyl]cinnoline-3-carboxylate]
- percentage damage caused to the plant, five-point scale, ZEAMX (Zea mays (ZEAMX) [1]): 2 (2=21-40%)
- percentage damage caused to the plant, five-point scale, IPOHE [2]: 0 (0=0%)
- percentage damage caused to the plant, SETFA (five-point scale) (Setaria faberi (SETFA) [3]): 1 (1=10-20%)
- percentage damage caused to the plant, IPOHE (five-point scale) [4]: 1 (1=10-20%)
- percentage damage caused to the plant, ECHCG (five-point scale) [5]: 1 (1=10-20%)
- percentage damage caused to the plant, AMARE (five-point scale) [6]: 0 (0=0%)
- percentage damage caused to the plant, ZEAMX (five-point scale) (Zea mays (ZEAMX) [7]): 1 (1=10-20%)
- percentage damage caused to the plant, ABUTH (five-point scale) [8]: 1 (1=10-20%)
- percentage damage caused to the plant, five-point scale, SETFA (Setaria faberi (SETFA) [9]): 0 (0=0%)
- percentage damage caused to the plant, five-point scale, ABUTH [10]: 1 (1=10-20%)
- percentage damage caused to the plant, five-point scale, ECHCG [11]: 0 (0=0%)
- percentage damage caused to the plant, five-point scale, AMARE [12]: 0 (0=0%)

SMILES: CCOC(=O)c1nn(-c2ccc(OC(F)(F)F)cc2)c2ccc(C#N)c(S(C)(=O)=O)c2c1=O [Compound P47, ethyl 6-cyano-5-methylsulfonyl-4-oxo-1-[4-(trifluoromethoxy)phenyl]cinnoline-3-carboxylate]
- percentage damage caused to the plant, five-point scale, ZEAMX (Zea mays (ZEAMX) [1]): 0 (0=0%)
- percentage damage caused to the plant, five-point scale, IPOHE [2]: 0 (0=0%)
- percentage damage caused to the plant, SETFA (five-point scale) (Setaria faberi (SETFA) [3]): 1 (1=10-20%)
- percentage damage caused to the plant, IPOHE (five-point scale) [4]: 0 (0=0%)
- percentage damage caused to the plant, ECHCG (five-point scale) [5]: 1 (1=10-20%)
- percentage damage caused to the plant, AMARE (five-point scale) [6]: 0 (0=0%)
- percentage damage caused to the plant, ZEAMX (five-point scale) (Zea mays (ZEAMX) [7]): 0 (0=0%)
- percentage damage caused to the plant, ABUTH (five-point scale) [8]: 0 (0=0%)
- percentage damage caused to the plant, five-point scale, SETFA (Setaria faberi (SETFA) [9]): 0 (0=0%)
- percentage damage caused to the plant, five-point scale, ABUTH [10]: 0 (0=0%)
- percentage damage caused to the plant, five-point scale, ECHCG [11]: 0 (0=0%)
- percentage damage caused to the plant, five-point scale, AMARE [12]: 0 (0=0%)

SMILES: CCOC(=O)c1nn(-c2ccc(OC(F)(F)F)cc2)c2cc(C#N)cc(S(C)(=O)=O)c2c1=O [Compound P48, ethyl 7-cyano-5-methylsulfonyl-4-oxo-1-[4-(trifluoromethoxy)phenyl]cinnoline-3-carboxylate]
- percentage damage caused to the plant, five-point scale, ZEAMX (Zea mays (ZEAMX) [1]): 0 (0=0%)
- percentage damage caused to the plant, five-point scale, IPOHE [2]: 0 (0=0%)
- percentage damage caused to the plant, SETFA (five-point scale) (Setaria faberi (SETFA) [3]): 0 (0=0%)
- percentage damage caused to the plant, IPOHE (five-point scale) [4]: 0 (0=0%)
- percentage damage caused to the plant, ECHCG (five-point scale) [5]: 0 (0=0%)
- percentage damage caused to the plant, AMARE (five-point scale) [6]: 0 (0=0%)
- percentage damage caused to the plant, ZEAMX (five-point scale) (Zea mays (ZEAMX) [7]): 0 (0=0%)
- percentage damage caused to the plant, ABUTH (five-point scale) [8]: 0 (0=0%)
- percentage damage caused to the plant, five-point scale, SETFA (Setaria faberi (SETFA) [9]): 0 (0=0%)
- percentage damage caused to the plant, five-point scale, ABUTH [10]: 0 (0=0%)
- percentage damage caused to the plant, five-point scale, ECHCG [11]: 0 (0=0%)
- percentage damage caused to the plant, five-point scale, AMARE [12]: 0 (0=0%)

SMILES: CCOC(=O)c1nn(-c2ccc(OC(F)(F)F)cc2)c2ccc(OC)c(S(C)(=O)=O)c2c1=O [Compound P49, ethyl 6-methoxy-5-methylsulfonyl-4-oxo-1-[4-(trifluoromethoxy)phenyl]cinnoline-3-carboxylate]
- percentage damage caused to the plant, five-point scale, ZEAMX (Zea mays (ZEAMX) [1]): 0 (0=0%)
- percentage damage caused to the plant, five-point scale, IPOHE [2]: 0 (0=0%)
- percentage damage caused to the plant, SETFA (five-point scale) (Setaria faberi (SETFA) [3]): 1 (1=10-20%)
- percentage damage caused to the plant, IPOHE (five-point scale) [4]: 1 (1=10-20%)
- percentage damage caused to the plant, ECHCG (five-point scale) [5]: 1 (1=10-20%)
- percentage damage caused to the plant, AMARE (five-point scale) [6]: 0 (0=0%)
- percentage damage caused to the plant, ZEAMX (five-point scale) (Zea mays (ZEAMX) [7]): 0 (0=0%)
- percentage damage caused to the plant, ABUTH (five-point scale) [8]: 0 (0=0%)
- percentage damage caused to the plant, five-point scale, SETFA (Setaria faberi (SETFA) [9]): 0 (0=0%)
- percentage damage caused to the plant, five-point scale, ABUTH [10]: 0 (0=0%)
- percentage damage caused to the plant, five-point scale, ECHCG [11]: 0 (0=0%)
- percentage damage caused to the plant, five-point scale, AMARE [12]: 0 (0=0%)

SMILES: CCOC(=O)c1nn(-c2ccc(OC(F)(F)F)cc2)c2ccc(F)c(S(C)(=O)=O)c2c1=O [Compound P51, ethyl 6-fluoro-5-methylsulfonyl-4-oxo-1-[4-(trifluoromethoxy)phenyl]cinnoline-3-carboxylate]
- percentage damage caused to the plant, five-point scale, ZEAMX (Zea mays (ZEAMX) [1]): 0 (0=0%)
- percentage damage caused to the plant, five-point scale, IPOHE [2]: 0 (0=0%)
- percentage damage caused to the plant, SETFA (five-point scale) (Setaria faberi (SETFA) [3]): 0 (0=0%)
- percentage damage caused to the plant, IPOHE (five-point scale) [4]: 0 (0=0%)
- percentage damage caused to the plant, ECHCG (five-point scale) [5]: 0 (0=0%)
- percentage damage caused to the plant, AMARE (five-point scale) [6]: 0 (0=0%)
- percentage damage caused to the plant, ZEAMX (five-point scale) (Zea mays (ZEAMX) [7]): 0 (0=0%)
- percentage damage caused to the plant, ABUTH (five-point scale) [8]: 0 (0=0%)
- percentage damage caused to the plant, five-point scale, SETFA (Setaria faberi (SETFA) [9]): 0 (0=0%)
- percentage damage caused to the plant, five-point scale, ABUTH [10]: 0 (0=0%)
- percentage damage caused to the plant, five-point scale, ECHCG [11]: 0 (0=0%)
- percentage damage caused to the plant, five-point scale, AMARE [12]: 0 (0=0%)

SMILES: CCOC(=O)c1nn(-c2ccc(OC(F)(F)F)cc2)c2cc(F)cc(S(C)(=O)=O)c2c1=O [Compound P52, ethyl 7-fluoro-5-methylsulfonyl-4-oxo-1-[4-(trifluoromethoxy)phenyl]cinnoline-3-carboxylate]
- percentage damage caused to the plant, five-point scale, ZEAMX (Zea mays (ZEAMX) [1]): 0 (0=0%)
- percentage damage caused to the plant, five-point scale, IPOHE [2]: 0 (0=0%)
- percentage damage caused to the plant, SETFA (five-point scale) (Setaria faberi (SETFA) [3]): 2 (2=21-40%)
- percentage damage caused to the plant, IPOHE (five-point scale) [4]: 0 (0=0%)
- percentage damage caused to the plant, ECHCG (five-point scale) [5]: 2 (2=21-40%)
- percentage damage caused to the plant, AMARE (five-point scale) [6]: 1 (1=10-20%)
- percentage damage caused to the plant, ZEAMX (five-point scale) (Zea mays (ZEAMX) [7]): 1 (1=10-20%)
- percentage damage caused to the plant, ABUTH (five-point scale) [8]: 1 (1=10-20%)
- percentage damage caused to the plant, five-point scale, SETFA (Setaria faberi (SETFA) [9]): 4 (4=61-80%)
- percentage damage caused to the plant, five-point scale, ABUTH [10]: 1 (1=10-20%)
- percentage damage caused to the plant, five-point scale, ECHCG [11]: 3 (3=41-60%)
- percentage damage caused to the plant, five-point scale, AMARE [12]: 1 (1=10-20%)
